Results from ChEMBL document CHEMBL1201862, “PubChem BioAssay data set” (2004).
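Growth conditions: 96-well plates. Treatment: test compound, 48 hours, 5 concentrations. Analysis: linear interpolation between bracketing concentrations; unreached endpoints set to highest concentration. GI50 = concentration required for 50% inhibition of growth.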 Active and inactive are the calls of the source. Rule as the data show it: active = GI50 up to about 1.1 µM and inactive = higher.

How the values were obtained:
Assay in all cases: NCI anticancer screen, dose series, 48 h
[1] = system: UO-31
[2] = system: SF-268
[3] = system: SF-295
[4] = system: 786-0
[5] = system: SK-MEL-28
[6] = system: Malme-3M
[7] = system: HCT-116
[8] = system: NCI-H23
[9] = system: CCRF-CEM
[10] = system: LXFL 529
[11] = system: UACC-62
[12] = system: HCC 2998
[13] = system: COLO 205
[14] = system: HT-29
[15] = system: SK-OV-3
[16] = system: SNB-78
[17] = system: TK-10
[18] = system: KM-20L2
[19] = system: NCI-H522
[20] = system: RXF 393
[21] = system: KM12
[22] = system: OVCAR-3
[23] = system: EKVX
[24] = system: DMS-114
[25] = system: HOP-62
[26] = system: HCT-15
[27] = system: UACC-257
[28] = system: MOLT-4
[29] = system: DMS-273
[30] = system: U-251
[31] = system: OVCAR-8
[32] = system: DLD-1
[33] = system: A549
[34] = system: SF-539
[35] = system: SR
[36] = system: K562
[37] = system: IGROV-1
[38] = system: M19-MEL
[39] = system: LOX IMVI
[40] = system: SN12C
[41] = system: SNB-75
[42] = system: NCI-H460
[43] = system: ACHN
[44] = system: M14
[45] = system: HL-60
[46] = system: NCI-H226
[47] = system: RPMI-8226
[48] = system: SW-620
[49] = system: SNB-19
[50] = system: SK-MEL-2
[51] = system: CAKI-1
[52] = system: OVCAR-4
[53] = system: HOP-92

In the case of `Cn1c(=O)c(C(=O)NC23CC4CC(CC(C4)C2)C3)c(O)c2ccccc21`, the GI50 [1] was 50.1 µM (inactive), the GI50 [2] was 74.5 µM (inactive) and the GI50 [3] was 18.5 µM (inactive). The GI50 [4] was 14.3 µM (inactive), the GI50 [5] was 37.7 µM (inactive) and the GI50 [6] was 21.2 µM (inactive). For the same compound, the GI50 [7] was 23.5 µM (inactive), the GI50 [8] was 67.9 µM (inactive) and the GI50 [9] was > 100 µM (inactive). For the same compound, the GI50 [10] was 59.4 µM (inactive), the GI50 [11] was 53.7 µM (inactive) and the GI50 [12] was > 10 µM (inactive). The GI50 [13] was 46.1 µM (inactive), the GI50 [14] was 15.8 µM (inactive) and the GI50 [15] was 20.9 µM (inactive). For the same compound, the GI50 [16] was 43.3 µM (inactive), the GI50 [17] was 23.8 µM (inactive) and the GI50 [18] was 28.9 µM (inactive). The GI50 [19] was > 100 µM (inactive), the GI50 [20] was 14.8 µM (inactive) and the GI50 [21] was > 100 µM (inactive). The GI50 [22] was 23.4 µM (inactive), the GI50 [23] was 31.5 µM (inactive) and the GI50 [24] was 45.6 µM (inactive). The GI50 [25] was 21.8 µM (inactive), the GI50 [26] was over 100 µM and the GI50 [27] was 28.8 µM (inactive). For the same compound, the GI50 [28] was > 100 µM (inactive), the GI50 [29] was 26.2 µM (inactive) and the GI50 [30] was 24.5 µM (inactive). For the same compound, the GI50 [31] was 23.3 µM (inactive), the GI50 [32] was 50.7 µM (inactive) and the GI50 [33] was 28.8 µM (inactive). For the same compound, the GI50 [34] was 26.7 µM (inactive), the GI50 [35] was > 100 µM (inactive) and the GI50 [36] was > 100 µM (inactive). For the same compound, the GI50 [37] was 31.8 µM (inactive), the GI50 [38] was 49.8 µM (inactive) and the GI50 [39] was 43.4 µM (inactive). For the same compound, the GI50 [40] was 21.9 µM (inactive), the GI50 [41] was 28.4 µM (inactive) and the GI50 [42] was 22.3 µM (inactive). The GI50 [43] was 19.9 µM (inactive), the GI50 [44] was 28.8 µM (inactive) and the GI50 [45] was 25.1 µM (inactive). For the same compound, the GI50 [46] was 13.4 µM (inactive), the GI50 [47] was > 100 µM (inactive) and the GI50 [48] was 56.1 µM (inactive). For the same compound, the GI50 [49] was 21.2 µM (inactive).
With `CCCNC1CC(n2cc(C)c(=O)[nH]c2=O)OC1CO` (stereo unspecified) the GI50 [1] was > 100 µM (inactive), the GI50 [2] was > 100 µM (inactive) and the GI50 [4] was > 100 µM (inactive). The GI50 [5] was > 100 µM (inactive), the GI50 [6] was > 100 µM (inactive) and the GI50 [7] was > 100 µM (inactive). The GI50 [8] was > 100 µM (inactive), the GI50 [9] was > 100 µM (inactive) and the GI50 [10] was > 100 µM (inactive). The GI50 [50] was > 100 µM (inactive), the GI50 [11] was > 100 µM (inactive) and the GI50 [12] was > 100 µM (inactive). The GI50 [13] was > 100 µM (inactive), the GI50 [15] was > 100 µM (inactive) and the GI50 [16] was > 100 µM (inactive). For the same compound, the GI50 [19] was > 100 µM (inactive), the GI50 [24] was > 100 µM (inactive) and the GI50 [25] was > 100 µM (inactive). For the same compound, the GI50 [28] was > 100 µM (inactive), the GI50 [29] was > 100 µM (inactive) and the GI50 [32] was > 100 µM (inactive). The GI50 [51] was > 100 µM (inactive), the GI50 [34] was > 100 µM (inactive) and the GI50 [35] was > 100 µM (inactive). For the same compound, the GI50 [36] was > 100 µM (inactive), the GI50 [37] was > 100 µM (inactive) and the GI50 [38] was > 100 µM (inactive). The GI50 [52] was > 100 µM (inactive), the GI50 [40] was > 100 µM (inactive) and the GI50 [41] was > 100 µM (inactive). The GI50 [42] was > 100 µM (inactive), the GI50 [43] was > 100 µM (inactive) and the GI50 [44] was > 100 µM (inactive). For the same compound, the GI50 [45] was > 100 µM (inactive), the GI50 [53] was > 100 µM (inactive) and the GI50 [46] was > 100 µM (inactive). The GI50 [47] was > 100 µM (inactive).
